Data taken from patent publication US8426447B2, “Spiro-tricyclic ring compounds as beta-secretase modulators and methods of use” (Amgen Inc., priority 2008, dated 2013).

Experiments:
BACE1 [1] = molecular target: T1, BACE1 (Homo sapiens, UniProt P56817); assay: In Vitro Enzymatic BACE FRET (Fluorescence Resonance Energy Transfer) Assay; format: biochemical; conditions: read-out: BACE1 FRET assay
Outline: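 Buffer 0.05 M acetate pH 4.2 with 10% DMSO final and 100 uM genapol; reaction started with 50 nM FRET peptide substrate (fluorophore/quencher flanking BACE cleavage site), incubated one hour. Stopped with Tris buffer raising pH to neutrality, then fluorescence read.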

BACE1 [2] = molecular target: T1, BACE1; assay: In Vitro BACE Cell-based Assay (HEK cell assay): Aβ40 in conditioned medium of cells stably expressing Amyloid Precursor Protein, sandwich ELISA; conditions: read-out: HEK cell assay
Outline: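 Conditioned medium Aβ40 by ELISA: pAb40 capture 3 h 4° C., biotin-6E10 detection 2 h 4° C., Streptavidin-Europium TRF. IC50 fitted from % control.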

T1 sequence (P56817 46-501, species assumed): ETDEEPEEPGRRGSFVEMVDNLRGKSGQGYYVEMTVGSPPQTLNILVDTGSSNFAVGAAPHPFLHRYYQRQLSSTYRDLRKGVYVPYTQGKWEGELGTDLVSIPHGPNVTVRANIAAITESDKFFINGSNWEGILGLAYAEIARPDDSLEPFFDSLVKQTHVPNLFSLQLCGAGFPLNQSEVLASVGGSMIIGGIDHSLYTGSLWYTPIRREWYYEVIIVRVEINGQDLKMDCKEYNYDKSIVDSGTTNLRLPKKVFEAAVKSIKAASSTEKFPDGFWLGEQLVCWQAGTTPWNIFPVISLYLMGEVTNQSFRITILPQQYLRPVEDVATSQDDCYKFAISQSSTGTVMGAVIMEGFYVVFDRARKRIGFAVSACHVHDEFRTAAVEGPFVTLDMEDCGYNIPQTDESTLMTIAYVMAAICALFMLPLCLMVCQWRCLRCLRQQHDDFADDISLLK

| Compound | IC50 (BACE1 [1]; Table IV, class symbols) | IC50 (BACE1 [2]; Table IV, class symbols) | IC50 (BACE1 [1]) | IC50 (BACE1 [2]) |
| --- | --- | --- | --- | --- |
| NC1=N[C@]2(CO1)c1cc(OCC(O)(C(F)(F)F)C(F)(F)F)ccc1Oc1ccc(-c3cccnc3)cc12 [compound 894] | < 100 nM | 100 to 1000 nM |  |  |
| CC(C)(C)C#Cc1ccc2c(c1)[C@@]1(COC(N)=N1)c1cc(-c3cccnc3)cnc1O2 [compound 895] | < 100 nM | < 100 nM |  |  |
| CC(C)(C)C#Cc1ccc2c(c1)[C@]1(COC(N)=N1)c1cc(-c3cccnc3)cnc1O2 [compound 896] | 100 to 1000 nM | 1000 to 5000 nM |  |  |
| CC(C)(C)C#Cc1ccc2c(c1)[C@@]1(COC(N)=N1)c1cc(C#CC(C)(C)C)cnc1O2 [compound 897] | < 100 nM | 100 to 1000 nM |  |  |
| CC(C)(C)C#Cc1ccc2c(c1)[C@]1(COC(N)=N1)c1cc(C#CC(C)(C)C)cnc1O2 [compound 898] | 100 to 1000 nM | > 5000 nM |  |  |
| COc1ccc2c(c1)[C@@]1(COC(N)=N1)c1c(ccc(-c3cncnc3)c1F)O2 [compound 899] | 100 to 1000 nM | 1000 to 5000 nM |  |  |
| COc1ccc2c(c1)[C@]1(COC(N)=N1)c1cc(C#CC(C)(C)OC)cnc1O2 [compound 901] | 1000 to 5000 nM | > 5000 nM |  |  |
| NC1=N[C@@]2(CO1)c1cc(-c3cccnc3)ccc1Oc1cnc(-c3cccnc3)cc12 [compound 902] | < 100 nM | < 100 nM |  |  |
| COc1ccc2c(c1)[C@]1(COC(N)=N1)c1cc(C#CC(C)(C)O)cnc1O2 [compound 903] | > 5000 nM | > 5000 nM |  |  |
| COc1ccc2c(c1)[C@]1(COC(N)=N1)c1cc(C#CC(C)(C)C)cnc1O2 [compound 904] | > 5000 nM | 100 to 1000 nM |  |  |
| CC(C)(O)COc1ccc2c(c1)[C@]1(COC(N)=N1)c1cc(-c3cccnc3F)ccc1O2 [compound 906] | < 100 nM | < 100 nM |  |  |
| Cc1c(OCC(C)(C)O)ccc2c1[C@]1(COC(N)=N1)c1cc(-c3cccnc3)ccc1O2 [compound 907] | < 100 nM | < 100 nM |  |  |
| COc1ccc(-c2ccc3c(c2)[C@@]2(COC(N)=N2)c2cc(OCC(C)(C)C)ccc2O3)c(OC)n1 [compound 909] | 100 to 1000 nM | > 5000 nM |  |  |
| CC(C)(C)COc1ccc2c(c1)[C@]1(COC(N)=N1)c1cc(-c3ccc(S(C)(=O)=O)cc3)ccc1O2 [compound 910] | 1000 to 5000 nM | 1000 to 5000 nM |  |  |
| CC(C)(C)COc1ccc2c(c1)[C@]1(COC(N)=N1)c1cc(-c3cccnc3C(F)(F)F)ccc1O2 [compound 911] | 100 to 1000 nM | > 5000 nM |  |  |
| CC(C)(C)COc1ccc2c(c1)[C@]1(COC(N)=N1)c1cc(-c3ccc(N4CCOCC4)nc3)ccc1O2 [compound 912] | 1000 to 5000 nM | > 5000 nM |  |  |
| CC(C)(C)COc1ccc2c(c1)[C@]1(COC(N)=N1)c1cc(-c3cccnc3Cl)ccc1O2 [compound 913] | < 100 nM | 100 to 1000 nM |  |  |
| Cn1ccc2cc(-c3ccc4c(c3)[C@@]3(COC(N)=N3)c3cc(OCC(C)(C)C)ccc3O4)ccc21 [compound 914] | 100 to 1000 nM | > 5000 nM |  |  |

| Compound | IC50 (BACE1 [1]; Table IV, class symbols) | IC50 (BACE1 [2]; Table IV, class symbols) | IC50 (BACE1 [1]) | IC50 (BACE1 [2]) |
| --- | --- | --- | --- | --- |
| CC(C)(C)COc1ccc2c(c1)[C@]1(COC(N)=N1)c1cc(-c3cccc(S(C)(=O)=O)c3)ccc1O2 [compound 915] | < 100 nM | 1000 to 5000 nM |  |  |
| CC(C)(C)COc1ccc2c(c1)[C@]1(COC(N)=N1)c1cc(-c3cccc4ncccc34)ccc1O2 [compound 916] | 100 to 1000 nM | 1000 to 5000 nM |  |  |
| CN(C)C(=O)/C=C/c1ccc2c(c1)[C@]1(COC(N)=N1)c1cc(-c3cncnc3)ccc1O2 [compound 917] | < 100 nM | 100 to 1000 nM |  |  |
| COC(=O)/C=C/c1ccc2c(c1)[C@@]1(COC(N)=N1)c1cc(-c3cccnc3)ccc1O2 [compound 918] | 100 to 1000 nM | 100 to 1000 nM |  |  |
| NC1=N[C@@]2(CO1)c1cc(Br)ccc1Oc1ccc(/C=C/C(=O)O)cc12 [compound 919] | 1000 to 5000 nM | > 5000 nM |  |  |
| CCCOc1cc2c(cc1F)Oc1ccc(-c3ccc(F)nc3)cc1[C@@]21COC(N)=N1 [compound 920] | < 100 nM | 100 to 1000 nM |  |  |
| CCCOc1cc2c(cc1F)Oc1ccc(-c3ccc(F)nc3)cc1[C@]21COC(N)=N1 [compound 921] | 100 to 1000 nM | 1000 to 5000 nM |  |  |
| CC(C)(C)CCc1cnc2c(c1)[C@]1(COC(N)=N1)c1cc(-c3cccnc3)ccc1O2 [compound 922] | < 100 nM | < 100 nM |  |  |
| CC(=O)COc1ccc2c(c1)[C@]1(COC(N)=N1)c1cc(-c3cccnc3)ccc1O2 [compound 923] | < 100 nM | < 100 nM |  |  |
| NC1=N[C@]2(CO1)c1cc(OC[C@H](O)C(F)(F)F)ccc1Oc1ccc(-c3cccnc3)cc12 [compound 924] | < 100 nM | 100 to 1000 nM |  |  |
| NC1=N[C@]2(CO1)c1cc(OC[C@@H](O)C(F)(F)F)ccc1Oc1ccc(-c3cccnc3)cc12 [compound 925] |  |  | < 100 nM | 100 to 1000 nM |
| CC(=O)COc1ccc2c(c1)[C@@]1(COC(N)=N1)c1cc(-c3cccnc3)cnc1O2 [compound 926] |  |  | 100 to 1000 nM | 100 to 1000 nM |
| CC(C)(C)C#Cc1cnc2c(c1)[C@@]1(COC(N)=N1)c1cc(Oc3ccccn3)ccc1O2 [compound 927] |  |  | 100 to 1000 nM | 1000 to 5000 nM |
| CC(C)(O)COc1ccc2c(c1C#N)[C@]1(COC(N)=N1)c1cc(-c3cccnc3)ccc1O2 [compound 929] |  |  | < 100 nM | 100 to 1000 nM |
| CC(C)(C)C#Cc1ccc2c(c1)C1(COC(N)=N1)c1cc(C#CC(C)(C)C)ccc1O2 [compound 930] |  |  | 100 to 1000 nM | 1000 to 5000 nM |
| CC(C)(C)CCOc1nccc2c1[C@@]1(COC(N)=N1)c1cc(-c3cccnc3)ccc1O2 [compound 931] |  |  | 1000 to 5000 nM | > 5000 nM |
| CC(C)(C)CCOc1nccc2c1[C@]1(COC(N)=N1)c1cc(-c3cccnc3)ccc1O2 [compound 932] |  |  | 100 to 1000 nM | 100 to 1000 nM |

Now from value to molecule:

| IC50 (BACE1 [1]; Table IV, class symbols) | IC50 (BACE1 [2]; Table IV, class symbols) | IC50 (BACE1 [1]) | IC50 (BACE1 [2]) | Compound |
| --- | --- | --- | --- | --- |
|  |  | < 100 nM | < 100 nM | NC1=N[C@]2(CO1)c1cc(OCC3CCOCC3)ccc1Oc1ccc(-c3cccnc3)cc12 [compound 933] |
|  |  | < 100 nM | < 100 nM | COC(C)(C)C#Cc1ccc2c(c1)[C@@]1(COC(N)=N1)c1cc(C#CC(C)(C)OC)cnc1O2 [compound 934] |
|  |  | 100 to 1000 nM | 100 to 1000 nM | CC(C)(O)C#Cc1ccc2c(c1)[C@@]1(COC(N)=N1)c1cc(C#CC(C)(C)O)cnc1O2 [compound 935] |
|  |  | > 5000 nM | > 5000 nM | NC1=N[C@@]2(CO1)c1cc(Oc3ccccn3)ccc1Oc1ncc(Br)cc12 [compound 936] |
|  |  | < 100 nM | 100 to 1000 nM | CC(C)(O)COc1ccc2c(c1)[C@]1(COC(N)=N1)c1cc(C#CC3CC3)ccc1O2 [compound 937] |
|  |  | < 100 nM | < 100 nM | CCCOc1cc2c(cc1F)Oc1ccc(-c3cccnc3)cc1[C@@]21COC(N)=N1 [compound 938] |
|  |  | 100 to 1000 nM | 100 to 1000 nM | CCCOc1cc2c(cc1F)Oc1ccc(-c3cccnc3)cc1[C@]21COC(N)=N1 [compound 939] |
|  |  | < 100 nM | < 100 nM | CCCOc1cc2c(cc1F)Oc1ccc(-c3cncnc3)cc1[C@@]21COC(N)=N1 [compound 940] |
|  |  | 100 to 1000 nM | 1000 to 5000 nM | CCCOc1cc2c(cc1F)Oc1ccc(-c3cncnc3)cc1[C@]21COC(N)=N1 [compound 941] |
|  |  | < 100 nM | < 100 nM | NC1=N[C@]2(CO1)c1cc(C#CC3(O)CCC3)ccc1Oc1ccc(-c3cccnc3)cc12 [compound 942] |
|  |  | < 100 nM | 100 to 1000 nM | CC(C)(C)COc1ccc2c(c1C#N)[C@]1(COC(N)=N1)c1cc(-c3cccnc3)ccc1O2 [compound 943] |
|  |  | < 100 nM | < 100 nM | CC(C)(O)COc1ccc2c(c1Br)[C@]1(COC(N)=N1)c1cc(-c3cccnc3)ccc1O2 [compound 944] |
|  |  | 100 to 1000 nM | 100 to 1000 nM | NC1=N[C@]2(CO1)c1cc(C(=O)N3CCCC3)ccc1Oc1ccc(-c3cccnc3)cc12 [compound 945] |
|  |  | 100 to 1000 nM | 100 to 1000 nM | COC(=O)/C=C/c1ccc2c(c1)[C@@]1(COC(N)=N1)c1cc(-c3cncnc3)ccc1O2 [compound 946] |
|  |  | 100 to 1000 nM | 100 to 1000 nM | COC(=O)/C=C/c1ccc2c(c1)[C@]1(COC(N)=N1)c1cc(-c3cccnc3)ccc1O2 [compound 947] |
|  |  | 100 to 1000 nM | > 5000 nM | NC1=N[C@]2(CO1)c1cc(/C=C/C(=O)O)ccc1Oc1ccc(-c3cncnc3)cc12 [compound 948] |
|  |  | < 100 nM | > 5000 nM | NC1=N[C@]2(CO1)c1cc(/C=C/C(=O)O)ccc1Oc1ccc(-c3cccnc3)cc12 [compound 949] |
|  |  | 1000 to 5000 nM | > 5000 nM | COC(=O)/C=C/c1ccc2c(c1)[C@@]1(COC(N)=N1)c1cc(Br)ccc1O2 [compound 950] |
|  |  | < 100 nM | < 100 nM | CC(C)(C)COc1ccc2c(c1)[C@@]1(COC(N)=N1)c1cc(-c3ccc(F)nc3)cnc1O2 [compound 951] |
|  |  | < 100 nM | < 100 nM | CC(C)(C)COc1ccc2c(c1)[C@@]1(COC(N)=N1)c1cc(-c3cccnc3F)cnc1O2 [compound 952] |
|  |  | 100 to 1000 nM | 1000 to 5000 nM | NC1=N[C@]2(CO1)c1cc(-c3cccnc3)ccc1Oc1cnc(Cl)cc12 [compound 953] |
|  |  | < 100 nM | 100 to 1000 nM | NC1=N[C@]2(CO1)c1cc(-c3cccnc3)ccc1Oc1cnc(-c3cccnc3)cc12 [compound 954] |
|  |  | 1000 to 5000 nM | > 5000 nM | NC1=N[C@]2(CO1)c1cc(-c3cccnc3)ccc1Oc1cnc(Cl)cc12 [compound 955] |
|  |  | 1000 to 5000 nM | > 5000 nM | NC1=N[C@@]2(CO1)c1cc(Br)ccc1Oc1ccc(C#CC3(O)CCC3)cc12 [compound 957] |
|  |  | 100 to 1000 nM | 1000 to 5000 nM | CC(C)(C)COc1ccc2c(c1)[C@]1(COC(N)=N1)c1cc(C#N)ccc1O2 [compound 959] |
|  |  | 100 to 1000 nM | 1000 to 5000 nM | NC1=N[C@]2(CO1)c1cc(Br)ccc1Oc1ccc(-c3cccnc3)cc12 [compound 960] |
